24 molecules from BindingDB's records for doi:10.7270/Q23B5XKP (Vanderbilt Screening Center for GPCRs, Ion Channels and …, 2009) can be followed below.

The target in the first experiment is T1, Solute carrier family 12 member 5 (Homo sapiens, UniProt Q9H2X9).
T1 sequence (Q9H2X9 whole entry): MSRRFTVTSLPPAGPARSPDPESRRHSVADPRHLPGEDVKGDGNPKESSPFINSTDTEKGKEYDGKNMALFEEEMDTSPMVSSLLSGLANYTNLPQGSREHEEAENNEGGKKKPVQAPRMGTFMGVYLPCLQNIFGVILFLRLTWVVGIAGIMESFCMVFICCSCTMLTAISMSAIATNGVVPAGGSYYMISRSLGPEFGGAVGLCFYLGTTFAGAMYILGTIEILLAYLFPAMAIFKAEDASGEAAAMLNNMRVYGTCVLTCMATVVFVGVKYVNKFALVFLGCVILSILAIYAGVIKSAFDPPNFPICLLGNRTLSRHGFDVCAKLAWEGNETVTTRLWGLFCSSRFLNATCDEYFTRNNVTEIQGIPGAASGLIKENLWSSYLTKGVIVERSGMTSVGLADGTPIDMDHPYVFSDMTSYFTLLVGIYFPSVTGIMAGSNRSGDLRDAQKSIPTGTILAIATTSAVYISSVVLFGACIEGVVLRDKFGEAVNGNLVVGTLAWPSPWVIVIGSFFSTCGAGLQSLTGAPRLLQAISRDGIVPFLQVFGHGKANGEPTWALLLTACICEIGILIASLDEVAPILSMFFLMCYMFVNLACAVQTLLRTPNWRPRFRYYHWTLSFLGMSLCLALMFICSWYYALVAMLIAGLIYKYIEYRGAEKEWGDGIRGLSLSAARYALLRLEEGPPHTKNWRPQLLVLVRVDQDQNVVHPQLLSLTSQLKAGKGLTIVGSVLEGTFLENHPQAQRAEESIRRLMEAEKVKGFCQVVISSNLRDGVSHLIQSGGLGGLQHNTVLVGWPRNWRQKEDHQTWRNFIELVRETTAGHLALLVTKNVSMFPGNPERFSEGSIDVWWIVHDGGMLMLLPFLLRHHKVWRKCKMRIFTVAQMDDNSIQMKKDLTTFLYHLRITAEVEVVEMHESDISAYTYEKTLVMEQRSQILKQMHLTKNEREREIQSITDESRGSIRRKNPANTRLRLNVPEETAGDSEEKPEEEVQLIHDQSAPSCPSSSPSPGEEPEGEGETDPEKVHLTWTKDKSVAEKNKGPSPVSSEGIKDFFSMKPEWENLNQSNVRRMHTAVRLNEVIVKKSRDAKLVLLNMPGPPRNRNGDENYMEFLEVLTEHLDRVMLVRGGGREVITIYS
In words: modulation of KCC2 K-Cl transport – cell-based, assay 2, dose response (AID 1723).
Conditions: not given
Take `S=C(NCCc1ccccc1)NN=Cc1cccc(Cl)c1Cl` [1-[(2,3-dichlorobenzylidene)amino]-3-phenethyl-thiourea]: the response was half-maximal at 10.1 µM (EC50).
Same read-out and setting: next, `Fc1cccc(F)c1C=NNC(=S)Nc1cccnc1` [1-[(2,6-difluorobenzylidene)amino]-3-(3-pyridyl)thiourea]: 6.66 µM; `CC(=NNC(=O)c1ccc2c(c1)OCO2)c1ccc(Br)s1` [MLS000666595]: 726 µM.
Still for that read-out and setting: next, `COc1ccc(Cn2c(=S)[nH]c3ccccc32)cc1` [1-(4-methoxybenzyl)-1H-benzimidazole-2-thiol]: 0.401 µM; `CC(=O)c1cccc(NC(=S)NC(=O)c2ccc(C)cc2)c1` [MLS000687464]: 1.19 µM; `N=C1SCC(=O)N1c1ncc(Cc2cccc(Cl)c2)s1` [2-azanylidene-3-[5-[(3-chlorophenyl)methyl]-1,3-thiazol-2-yl]-1,3-thiazolidin-4-one]: 2.86 µM.
The same measure, in the same setting: the value for `O=C1OC(c2ccc(O)cc2)(c2ccc(O)cc2)c2ccccc21` was 11.8 µM; that for `O=[N+]([O-])c1ccc(-c2cn(-c3ccccc3F)c(=S)[nH]2)cc1` was 0.616 µM; that for `O=c1c2ccccc2[nH]c(=S)n1CCN1CCC(=C(c2ccc(F)cc2)c2ccc(F)cc2)CC1` [SMR000058550] was 13.3 µM.
Regarding `CCOc1ccc2nc(Sc3cc(O)n(-c4cccc(OC)c4)c3O)sc2c1` [3-(6-Ethoxy-benzothiazol-2-ylsulfanyl)-1-(3-methoxy-phenyl)-pyrrolidine-2,5-dione], the EC50 (commonly the concentration giving half of the maximal effect) stood at 7.89 µM.
In turn, `NC(=S)NN=C1C(=O)N(Cc2ccc(F)cc2)c2ccccc21` [1-[(Z)-[1-[(4-fluorophenyl)methyl]-2-oxidanylidene-indol-3-ylidene]amino]thiourea] showed an EC50 of 7.58 µM.
On the same count and under the same terms, the value for `COc1cc(NC(=S)NC(=O)c2ccco2)ccc1NC(=O)C(C)C` [MLS000672338] was 7.99 µM; that for `CCOc1cccc(C(=O)NC(=S)Nc2cccc(C)c2)c1` [3-ethoxy-N-(m-tolylthiocarbamoyl)benzamide] was 1.58 µM; that for `Cc1[nH]n2c(=O)cc(C(C)C)nc2c1-c1ccccc1` was 21 µM.
`CC(C)c1ccc(OCC(=O)NNC(=O)c2cnccn2)cc1` [MLS000332605] came in with an EC50 of 15.6 µM.
The same measure, in the same setting: next, `Cc1cccc(N2CCN(C(=O)CCCn3c(=S)[nH]c4cc5c(cc4c3=O)OCO5)CC2)c1C` [MLS000095366]: 11.2 µM; `S=c1nc(-c2ccc3c(c2)CCO3)cc[nH]1`: 6.1 µM.
In turn, `COC(=O)[C@@H](NC(=O)O[C@@H]1C(=O)c2ccc(OC)cc2O[C@H]1c1cccc(C(F)(F)F)c1)C(C)C` [(2S)-2-[[(2S,3S)-4-keto-7-methoxy-2-[3-(trifluoromethyl)phenyl]chroman-3-yl]oxycarbonylamino]-3-methyl-butyric acid methyl ester] yielded an EC50 of 0.515 µM.
In turn, `O=C(C=Cc1ccccc1)CC(=O)c1ccccc1O` [MLS000627068] had an EC50 of 62.4 µM.
`O=C(NC(=S)Nc1nc(-c2cccc([N+](=O)[O-])c2)cs1)c1ccccc1Cl` [2-chloranyl-N-[[4-(3-nitrophenyl)-1,3-thiazol-2-yl]carbamothioyl]benzamide] showed an EC50 of 139 µM.
In the case of `Oc1ccccc1CN=Nc1nc2ccccc2o1` [(6E)-6-[(1,3-benzoxazol-2-ylhydrazo)methylidene]-1-cyclohexa-2,4-dienone], it took 31.1 µM to reach a half-maximal effect (EC50).

Still in this experiment, the particulars now being: inactive by the depositor's call.
As for `Cc1ccc(-c2n[nH]c(=S)n2NC=CCc2ccccc2[N+](=O)[O-])cc1`, a half-maximal response (EC50) required 0.807 µM.
Turning to `O=C(NC(=S)Nc1cccc2cccnc12)c1cccs1` [MLS000688132], the EC50 amounted to 0.124 µM.
On to `COc1ccccc1N1CCN(C(=S)NC(=O)/C=C/c2ccccc2)CC1` [(E)-N-[4-(2-Methoxy-phenyl)-piperazine-1-carbothioyl]-3-phenyl-acrylamide], for which a half-maximal response (EC50) required 1.34 µM.
